Activity calls are given as the source filed them.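 Rule for the calls: active = AC50, the dose giving half-maximal effect, exceeds a fixed cutoff for a compound that rescues yeast growth under heat; inactive = the rest, inconclusive results apart.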

The subject of this assay is S. cerevisiae Burl-1 ts mutant growth, BacTiter-Glo, 38.5C 24 h. The assay is described as follows: growth induction of Burl-1 ts yeast mutant, dose response, counter-screen for SUMOylation pathway inhibitor project, whole organism, S. cerevisiae, luminescence (AID 463199).
Consider `CCOc1ccc(N2CC(C(=O)OC)CC2=O)cc1` (centres undefined), for which the AC50 was > 42 µM (inactive). Under `CC(=O)Nc1cccc(OCC(=O)NS(=O)(=O)c2ccc(C)cc2)c1` stands > 42 µM (inactive). The value for `CC(C)(C)NC(=O)CN(C(=O)CCC(=O)Nc1nccs1)c1ccc2c(c1)OCCO2` was > 42 µM (inactive); that for `O=C(O)CCC(NC(=O)c1ccc(Cl)cc1)C(=O)O` (centres undefined) was > 42 µM (inactive); that for `COCCCn1c(=O)c2ccccc2n(Cc2ccccc2C)c1=O` was > 42 µM (inactive). For `OC(COCc1cccs1)CN1CCCCCC1` (centres undefined), the AC50 was > 42 µM (inactive). The value for `OCCN1CN=C(Nc2nc3ccccc3o2)NC1` was > 42 µM (inactive); that for `CCN(CC)S(=O)(=O)c1ccc(S(=O)(=O)N2CCC(C(=O)NC3CCN(Cc4ccccc4)CC3)CC2)cc1` was > 42 µM (inactive); that for `COc1ccc(/C=N\Nc2ccc([N+](=O)[O-])cc2)c(C(=O)O)c1OC` was > 42 µM (inactive). Under `O=C(NCc1ccccc1Cl)C(=O)NCC1CCCN1S(=O)(=O)c1cccs1` (centres undefined) stands > 42 µM (inactive); under `O=C(NC1CCCCC1)c1ccc2snnc2c1`, > 42 µM (inactive); under `O=C(COC(=O)C1COc2ccccc2O1)NC1CCS(=O)(=O)C1` (centres undefined), > 42 µM (inactive). Take `COc1ccc(/C=C(\C#N)C(=O)c2cccn2C)cc1`: the AC50 is > 42 µM (inactive).

Consider `O=C(O)c1c(C(=O)O)c(-c2ccc(F)cc2)n2c1CCC2`, for which the AC50 was > 42 µM (inactive). The value for `Cc1ccc2c(c1)C(=O)N1[C@H]3c4ccccc4OC[C@@H]3[C@H](c3ccccc3)[C@]1(C)C(=O)N2` was > 42 µM (inactive); that for `Cc1ccc(C(C[N+](=O)[O-])c2c(C)[nH]n(-c3ccccc3)c2=O)cc1` (centres undefined) was 39.7 µM.

For `O=C(CCC(=O)Nc1ccc(F)cc1)N/N=C/c1cccs1`, the AC50 is > 42 µM (inactive). As to `Cc1ccc(O)c(CNc2nc3ccccc3n2C)c1`, the AC50 was > 42 µM (inactive).

With `Cc1cc(C)n(-c2nc3ccccc3nc2N2CCN(C(=O)c3ccccc3)CC2)n1`, the AC50 is > 42 µM (inactive).

With `CCCCNC(=O)N1CCC(CCC(=O)N(C)Cc2ccccc2)CC1`, the AC50 is > 42 µM (inactive). The value for `CC(C)(C)NC(=O)C(c1cccs1)N(Cc1cccs1)C(=O)c1ccc(CN2CCOCC2)o1` (centres undefined) was > 42 µM (inactive). For `O=C(CSc1ncccc1C(=O)O)NC1CCCCC1`, the AC50 is > 42 µM (inactive).

`N#CC1=C(SCC(N)=O)NC(=O)CC1c1ccccc1Cl` (centres undefined): the AC50 was > 42 µM (inactive). `CC12CC3(C)CC(C)(C1)CC(C(=O)NC(=S)N1CCCC1)(C2)C3`: the AC50 is > 42 µM (inactive). For the compound `Cc1ccn2cc(-c3cnoc3C)nc2c1`, the AC50 is > 42 µM (inactive). Under `Cc1cccc(C)c1NC(=O)C(Cl)C(=O)c1ccccc1` (centres undefined) stands > 42 µM (inactive); under `Cn1cnnc1-c1cccc(NS(=O)(=O)c2ccc(N3CCCC3=O)cc2)c1`, > 42 µM (inactive).

In the case of `Cc1cc(C)n(CCOC(=O)C2C(C=C(Cl)Cl)C2(C)C)n1` (centres undefined), the AC50 is > 42 µM (inactive). Under `COC(=O)C1CN(C(=O)C(C)Oc2ccc(F)cc2)c2ccccc2O1` (centres undefined) stands > 42 µM (inactive); under `O=C1CC(c2ccccc2)c2ccc(O)cc2O1` (centres undefined), > 42 µM (inactive); under `O=c1[nH]c(=O)n(C2CCCO2)cc1Br` (centres undefined), > 42 µM (inactive). The value for `Cc1cc(C)cc(OCC(=O)NC2CCCc3ccccc32)c1` (centres undefined) was > 42 µM (inactive). Under `CCN(CC)C1CCN(C(=O)c2cc(COc3ccc(-n4cncn4)cc3)on2)C1` (centres undefined) stands > 42 µM (inactive); under `CC1(C)CC(=O)C(C(=O)c2ccccc2)C(=O)C1Cl` (centres undefined), > 42 µM (inactive); under `COc1ccccc1NC(=O)c1ccc(-n2ccnc2)c([N+](=O)[O-])c1`, > 42 µM (inactive).

Regarding `O=C(O)CC(NC(=O)OCc1ccccc1)c1ccc(Br)cc1` (centres undefined), the AC50 was > 42 µM (inactive). On to `c1ccc(CNc2ncnc3sc4c(c23)CCC4)nc1`, for which the AC50 was > 42 µM (inactive). Under `CC(C)CN(C(=O)COC(=O)c1ccc2c(c1)OCO2)c1c(N)n(Cc2ccccc2)c(=O)[nH]c1=O` stands > 42 µM (inactive); under `CCC(=O)Nc1ccc(S(=O)(=O)NCc2ccco2)cc1`, > 42 µM (inactive); under `CC(C)(C)C(=O)Nc1ccc(C(=O)NCc2cccnc2)cc1`, > 42 µM (inactive).

`COc1cc(C(=O)OCC(=O)NC(C)CCc2ccccc2)cc(OC)c1OC` (centres undefined): the AC50 was > 42 µM (inactive). The value for `NC(=O)CC(NC(=S)NCc1ccccc1)C(=O)O` (centres undefined) was > 42 µM (inactive); that for `O=C(O)CCC(=O)N1N=C(c2c(-c3ccccc3)c3cc(Cl)ccc3[nH]c2=O)CC1c1ccco1` (centres undefined) was > 42 µM (inactive); that for `COc1ccccc1C(=O)NCCNc1ccc([N+](=O)[O-])cc1Cl` was > 42 µM (inactive).

In the case of `Cc1nn(Cc2ccc(C(=O)Nc3ccccc3C(F)(F)F)o2)c(C)c1Br`, the AC50 was > 42 µM (inactive).

With `CC(NC(=O)OCc1ccccc1)C(=O)N1CC(O)CC1C(=O)O` (centres undefined), the AC50 is > 21 µM (inactive). Under `COc1ccc(N(CC(=O)NCc2ccc(C)cc2)S(=O)(=O)c2c(C)nn(C)c2C)cc1` stands > 42 µM (inactive).

Consider `CN(c1ccccc1C(=O)N1CCN(Cc2ccc3c(c2)OCO3)CC1)S(C)(=O)=O`, for which the AC50 is > 42 µM (inactive).

As to `CCOc1ccc(/C=N/NC(=O)c2ccc(CSc3nc4ccccc4[nH]3)cc2)cc1`, the AC50 was > 42 µM (inactive). The value for `COc1ccccc1CNC(=O)C1CCC(=O)N1C(C)C` (centres undefined) was > 42 µM (inactive); that for `CC(=O)N1N=C(c2ccc(C(C)(C)C)cc2)OC1(C)C` was > 42 µM (inactive); that for `CCCCOc1ccc(C(O)C(CN2CCOCC2)c2ccccc2)cc1` (centres undefined) was > 42 µM (inactive). The value for `COc1ccccc1NC(=O)c1nn(C)cc1Br` was > 42 µM (inactive); that for `COc1ccc(-c2cc(C(=O)Nc3cc(C)ccc3O)no2)cc1` was > 42 µM (inactive); that for `O=C(CN1CCN(c2ccccc2F)CC1)Nc1nnc(C(F)(F)F)s1` was > 42 µM (inactive). Under `CN(C(=O)c1ccc(-c2nn(C)c(=O)c3ccccc23)cc1)C1CCCCC1` stands > 42 µM (inactive); under `c1ccc2nc3c(nc2c1)OCC1CCCCN31` (centres undefined), > 42 µM (inactive); under `Cc1ccc(N(C(=O)CCl)C(C(=O)NC2CCCCC2)c2cccnc2)cc1C` (centres undefined), > 42 µM (inactive). As for `COc1ccc(OCC(O)CN2C(=O)NC(C)(C)C2=O)cc1` (centres undefined), the AC50 was > 42 µM (inactive).

Consider `COCC(=O)Nc1c(C(=O)Nc2ccc3c(c2)OCO3)oc2ccccc12`, for which the AC50 is > 42 µM (inactive). With `O=C(Cn1nc(C(F)(F)F)c2c1CCCC2)N1CCOCC1`, the AC50 was > 42 µM (inactive).

With `O=C(CSc1nc2ccc(Cl)cc2[nH]1)NCc1ccco1`, the AC50 is > 42 µM (inactive). In the case of `COC(CNC(=O)c1cn(C)c2ccc(S(=O)(=O)N3CCOCC3)cc2c1=O)OC`, the AC50 is > 42 µM (inactive). For the compound `O=C(CN1CCN(Cc2ccc(F)cc2)CC1)NCc1ccccc1`, the AC50 is > 42 µM (inactive). The value for `CC1(C(=O)Nc2cccc(-n3cnnn3)c2)Cc2ccccc2C(=O)O1` (centres undefined) was > 42 µM (inactive); that for `Cc1cccc(-[n+]2c(-c3cccc(Br)c3)[nH]c3nc4ccccc4nc32)c1` was > 42 µM (inactive); that for `COC(=O)c1c(C)n(Cc2ccc3c(c2)OCO3)c2ccc(O)cc12` was > 42 µM (inactive). With `CCOC(=O)c1oc2ccccc2c1COC(=O)CNC(=O)c1cccc(C)c1`, the AC50 is > 42 µM (inactive). As for `CC(C(=O)Nc1ccccc1-c1ccccc1)N1CCN(Cc2ccccc2)CC1` (centres undefined), the AC50 is > 42 µM (inactive). The value for `Cc1nc2ccccc2c(=O)n1CC(=O)N1CCOCC1` was > 42 µM (inactive). For `CCOC(=O)C1CCN(Cc2ccc(OCc3ccccc3)cc2)CC1`, the AC50 is > 42 µM (inactive). Under `CC(=O)N1CCN(CC(O)COc2ccc(OCc3ccccc3)cc2)CC1` (centres undefined) stands > 42 µM (inactive); under `CCc1ccc2nc(-c3cccc(C)c3)nc(SCC(=O)NCC3CCCO3)c2c1` (centres undefined), > 42 µM (inactive). The value for `COc1ccc(N=Cc2c(O)n(C)c(=O)[nH]c2=O)cc1` was > 42 µM (inactive); that for `Cc1cc(C(=O)NNC(=O)c2ccc(C)s2)c(C)o1` was > 42 µM (inactive); that for `Cc1[nH]nc2c1C(c1cccs1)C1=C(CC(C)(C)CC1=O)N2` (centres undefined) was > 42 µM (inactive). Under `CC(=O)Nc1cccc2c1C(=O)N(c1ccccc1C)C2=O` stands > 42 µM (inactive). With `CN(CCOc1ccc(Cl)cc1)CC(=O)Nc1ccc(OC(F)F)cc1`, the AC50 is > 42 µM (inactive). On to `CCOC(=O)/C(C#N)=C\c1ccc(CC)s1`, for which the AC50 is > 42 µM (inactive).

For `CCN(CC)CCCN(Cc1cc2cc(OC)ccc2[nH]c1=O)C(=O)Nc1ccc(F)cc1`, the AC50 was > 42 µM (inactive). Under `N#CC1=C(N)Nc2ncnn2C1c1ccc([N+](=O)[O-])cc1` (centres undefined) stands > 42 µM (inactive); under `COc1cccc(NC(=O)CN(C)C(=O)c2ccccc2OCc2c(C)noc2C)c1`, > 42 µM (inactive). Under `CSc1nc2ccc(NC(=O)c3c(F)cccc3F)cc2s1` stands > 42 µM (inactive); under `O=C(c1ccc(Br)cc1)C(CN1CCOCC1)c1ccccc1` (centres undefined), 1.86 µM. The value for `Cc1ccc(S(=O)(=O)N2[C@@H](c3ccccc3)C(C(=O)O)=CC[C@H]2c2ccc(Cl)cc2)cc1` was > 42 µM (inactive); that for `CC(C)(C)NC(=O)NC(=O)CN1CCN(S(=O)(=O)c2ccc3c(c2)OCCO3)CC1` was > 21 µM (inactive).

With `CC1(C)CCc2cc(CN3CCN(c4ccccn4)CC3)ccc2O1`, the AC50 was > 42 µM (inactive). Consider `CCCCN(C/C=C/c1ccccc1OC)Cc1ccccc1`, for which the AC50 was > 42 µM (inactive). Take `COc1cc(/C=N/NC2=NS(=O)(=O)c3ccccc32)cc(OC)c1OC`: the AC50 is > 42 µM (inactive).

These data come from PubChem BioAssay AID463199 (Broad Institute, 2010).
